From ChEMBL document CHEMBL3745645, “Synthesis, in vitro antitumor activity, dihydrofolate reductase inhibition, DNA intercalation and structure-activity relationship studies of 1,3,5-triazine analogues” (Bioorg Med Chem Lett, 2016)
The source made the active and inactive calls. No cut-off for these calls is given here.

Columns and labels:
Type in all cases: functional
[1] = Cytotoxicity against human MOLT4 cells at 10 uM after 48 hrs by SRB assay; settings: MOLT-4, 48 h, read-out: GI
SK-MEL-28 = assay: Cytotoxicity against human SK-MEL-28 cells at 10 uM after 48 hrs by SRB assay; settings: SK-MEL-28, 48 h, read-out: GI
[2] = Cytotoxicity against human OVCAR3 cells at 10 uM after 48 hrs by SRB assay; settings: OVCAR-3, 48 h, read-out: GI
[3] = Cytotoxicity against human HCC2998 cells at 10 uM after 48 hrs by SRB assay; settings: HCC 2998, 48 h, read-out: GI
[4] = Cytotoxicity against human UACC257 cells at 10 uM after 48 hrs by SRB assay; settings: UACC-257, 48 h, read-out: GI
NCI-H522 = assay: Cytotoxicity against human NCI-H522 cells at 10 uM after 48 hrs by SRB assay; settings: NCI-H522, 48 h, read-out: GI
[5] = Cytotoxicity against human LOXIMVI cells at 10 uM after 48 hrs by SRB assay; settings: LOX IMVI, read-out: GI
[6] = Cytotoxicity against human COLO205 cells at 10 uM after 48 hrs by SRB assay; settings: COLO 205, 48 h, read-out: GI
SK-MEL-2 = assay: Cytotoxicity against human SK-MEL-2 cells at 10 uM after 48 hrs by SRB assay; settings: SK-MEL-2, 48 h, read-out: GI
[7] = Cytotoxicity against human SKOV3 cells at 10 uM after 48 hrs by SRB assay; settings: SK-OV-3, 48 h, read-out: GI
SN12C = assay: Cytotoxicity against human SN12C cells at 10 uM after 48 hrs by SRB assay; settings: read-out: GI
[8] = Cytotoxicity against human HOP62 cells at 10 uM after 48 hrs by SRB assay; settings: HOP-62, 48 h, read-out: GI
[9] = Cytotoxicity against human OVCAR4 cells at 10 uM after 48 hrs by SRB assay; settings: OVCAR-4, 48 h, read-out: GI
[10] = Cytotoxicity against human HOP92 cells at 10 uM after 48 hrs by SRB assay; settings: HOP-92, 48 h, read-out: GI
CCRF-CEM = assay: Cytotoxicity against human CCRF-CEM cells at 10 uM after 48 hrs by SRB assay
[11] = Cytotoxicity against human BT549 cells at 10 uM after 48 hrs by SRB assay; settings: BT-549, 48 h, read-out: GI
MDA-MB-468 = assay: Cytotoxicity against human MDA-MB-468 cells at 10 uM after 48 hrs by SRB assay; settings: MDA-MB-468, 48 h, read-out: GI
[12] = Cytotoxicity against human OVCAR8 cells at 10 uM after 48 hrs by SRB assay; settings: OVCAR-8, 48 h, read-out: GI
[13] = Cytotoxicity against human HCT116 cells at 10 uM after 48 hrs by SRB assay; settings: HCT-116, 48 h, read-out: GI
[14] = Cytotoxicity against human Hs 578T cells at 10 uM after 48 hrs by SRB assay; settings: read-out: GI
KM12 = assay: Cytotoxicity against human KM12 cells at 10 uM after 48 hrs by SRB assay; settings: KM12, 48 h, read-out: GI
[15] = Cytotoxicity against human SNB19 cells at 10 uM after 48 hrs by SRB assay; settings: SNB-19, 48 h, read-out: GI
[16] = Cytotoxicity against human SNB75 cells at 10 uM after 48 hrs by SRB assay; settings: SNB-75, 48 h, read-out: GI
[17] = Cytotoxicity against human RXF393 cells at 10 uM after 48 hrs by SRB assay; settings: RXF 393, 48 h, read-out: GI
M14 = assay: Cytotoxicity against human M14 cells at 10 uM after 48 hrs by SRB assay; settings: M14, 48 h, read-out: GI
[18] = Cytotoxicity against human NCI-ADR-RES cells at 10 uM after 48 hrs by SRB assay; settings: read-out: GI
786-0 = assay: Cytotoxicity against human 786-0 cells at 10 uM after 48 hrs by SRB assay; settings: 786-0, 48 h, read-out: GI
[19] = Cytotoxicity against human HCT15 cells at 10 uM after 48 hrs by SRB assay; settings: HCT-15, 48 h, read-out: GI
[20] = Cytotoxicity against human SF539 cells at 10 uM after 48 hrs by SRB assay; settings: SF-539, 48 h, read-out: GI
Malme-3M = assay: Cytotoxicity against human MALME-3M cells at 10 uM after 48 hrs by SRB assay; settings: read-out: GI
[21] = Cytotoxicity against human TK10 cells at 10 uM after 48 hrs by SRB assay; settings: TK-10, 48 h, read-out: GI
OVCAR-5 = assay: Cytotoxicity against human OVCAR5 cells at 10 uM after 48 hrs by SRB assay
NCI-H226 = assay: Cytotoxicity against human NCI-H226 cells at 10 uM after 48 hrs by SRB assay; settings: NCI-H226, 48 h, read-out: GI
SR = assay: Cytotoxicity against human SR cells at 10 uM after 48 hrs by SRB assay; settings: read-out: GI
[22] = Cytotoxicity against human UO31 cells at 10 uM after 48 hrs by SRB assay; settings: UO-31, 48 h, read-out: GI
MCF7 = assay: Cytotoxicity against human MCF7 cells at 10 uM after 48 hrs by SRB assay; settings: MCF7, 48 h, read-out: GI
HT-29 = assay: Cytotoxicity against human HT-29 cells at 10 uM after 48 hrs by SRB assay; settings: HT-29, 48 h, read-out: GI
MDA-MB-435 = assay: Cytotoxicity against human MDA-MB-435 cells at 10 uM after 48 hrs by SRB assay; settings: MDA-MB-435, 48 h, read-out: GI
[23] = Cytotoxicity against human RPMI8226 cells at 10 uM after 48 hrs by SRB assay; settings: RPMI-8226, 48 h, read-out: GI
CAKI-1 = assay: Cytotoxicity against human Caki1 cells at 10 uM after 48 hrs by SRB assay
K562 = assay: Cytotoxicity against human K562 cells at 10 uM after 48 hrs by SRB assay; settings: K562, 48 h, read-out: GI
[24] = Cytotoxicity against human SF268 cells at 10 uM after 48 hrs by SRB assay; settings: SF-268, 48 h, read-out: GI
A549 = assay: Cytotoxicity against human A549 cells at 10 uM after 48 hrs by SRB assay; settings: A549, 48 h, read-out: GI
ACHN = assay: Cytotoxicity against human ACHN cells at 10 uM after 48 hrs by SRB assay; settings: read-out: GI
MDA-MB-231 = assay: Cytotoxicity against human MDA-MB-231 cells at 10 uM after 48 hrs by SRB assay; settings: MDA-MB-231, 48 h, read-out: GI
[25] = Cytotoxicity against human HL-60(TB) cells at 10 uM after 48 hrs by SRB assay; settings: HL-60, 48 h, read-out: GI
U-251 = assay: Cytotoxicity against human U251 cells at 10 uM after 48 hrs by SRB assay; settings: U-251, 48 h, read-out: GI
[26] = Cytotoxicity against human SW620 cells at 10 uM after 48 hrs by SRB assay; settings: SW-620, 48 h, read-out: GI
SK-MEL-5 = assay: Cytotoxicity against human SK-MEL-5 cells at 10 uM after 48 hrs by SRB assay; settings: SK-MEL-5, 48 h, read-out: GI
T47D = assay: Cytotoxicity against human T47D cells at 10 uM after 48 hrs by SRB assay; settings: read-out: GI
NCI-H460 = assay: Cytotoxicity against human NCI-H460 cells at 10 uM after 48 hrs by SRB assay; settings: NCI-H460, 48 h, read-out: GI
A498 = assay: Cytotoxicity against human A498 cells at 10 uM after 48 hrs by SRB assay; settings: A498, 48 h, read-out: GI
[27] = Cytotoxicity against human DU145 cells at 10 uM after 48 hrs by SRB assay; settings: DU-145, 48 h, read-out: GI
[28] = Cytotoxicity against human IGROV1 cells at 10 uM after 48 hrs by SRB assay; settings: IGROV-1, 48 h, read-out: GI
[29] = Cytotoxicity against human SF295 cells at 10 uM after 48 hrs by SRB assay; settings: SF-295, 48 h, read-out: GI

Compound `Cc1nc2cc(Nc3nc(Nc4ccc(F)cc4)nc(-c4ccccc4)n3)ccc2n1Cc1ccccc1` has an inhibition of growth at 10 µM [1] of 41.8%, an inhibition of growth at 10 µM (SK-MEL-28) of 5.63% and an inhibition of growth at 10 µM [2] of 18.8%. It also gave an inhibition of growth at 10 µM [3] of 12%, an inhibition of growth at 10 µM [4] of 18.7% and an inhibition of growth at 10 µM (NCI-H522) of 24.1%. It also gave an inhibition of growth at 10 µM [5] of 12.3%, an inhibition of growth at 10 µM [6] of 29.5% and an inhibition of growth at 10 µM (SK-MEL-2) of 25.4%. The inhibition of growth at 10 µM [7] was 1.78%, the inhibition of growth at 10 µM (SN12C) was 21.9% and the inhibition of growth at 10 µM [8] was 5.32%. For the same compound, the inhibition of growth at 10 µM [9] was 39.8%, the inhibition of growth at 10 µM [10] was 35.6% and the “growth inhibition (GI)” value (CCRF-CEM) was “inactive”. For the same compound, the inhibition of growth at 10 µM [11] was 4.6%, the inhibition of growth at 10 µM (MDA-MB-468) was 27.6% and the inhibition of growth at 10 µM [12] was 32.2%. For the same compound, the inhibition of growth at 10 µM [13] was 39.7%, the inhibition of growth at 10 µM [14] was 20.4% and the inhibition of growth at 10 µM (KM12) was 39.8%. The inhibition of growth at 10 µM [15] was 31.5%, the inhibition of growth at 10 µM [16] was 28.4% and the inhibition of growth at 10 µM [17] was 30.9%. It also gave an inhibition of growth at 10 µM (M14) of 34.1%, an inhibition of growth at 10 µM [18] of 29.5% and an inhibition of growth at 10 µM (786-0) of 18.4%. It also gave an inhibition of growth at 10 µM [19] of 32.4%, an inhibition of growth at 10 µM [20] of 0.21% and an inhibition of growth at 10 µM (Malme-3M) of 11.4%. For the same compound, the inhibition of growth at 10 µM [21] was 0.81%, the “growth inhibition (GI)” value (OVCAR-5) was “inactive” and the inhibition of growth at 10 µM (NCI-H226) was 19.3%. The inhibition of growth at 10 µM (SR) was 68.2%, the inhibition of growth at 10 µM [22] was 43.4% and the inhibition of growth at 10 µM (MCF7) was 54.9%. For the same compound, the inhibition of growth at 10 µM (HT-29) was 40.6%, the inhibition of growth at 10 µM (MDA-MB-435) was 40% and the inhibition of growth at 10 µM [23] was 53%. The “growth inhibition (GI)” value (CAKI-1) was “inactive”, the inhibition of growth at 10 µM (K562) was 38.2% and the inhibition of growth at 10 µM [24] was 23.8%. The inhibition of growth at 10 µM (A549) was 32.5%, the inhibition of growth at 10 µM (ACHN) was 23.6% and the inhibition of growth at 10 µM (MDA-MB-231) was 9.76%. It also gave an inhibition of growth at 10 µM [25] of 36.3%, an inhibition of growth at 10 µM (U-251) of 36.6% and an inhibition of growth at 10 µM [26] of 15.4%. The inhibition of growth at 10 µM (SK-MEL-5) was 14.5%, the inhibition of growth at 10 µM (T47D) was 55.5% and the inhibition of growth at 10 µM (NCI-H460) was 16.8%. For the same compound, the inhibition of growth at 10 µM (A498) was 23.2%, the inhibition of growth at 10 µM [27] was 2.93% and the inhibition of growth at 10 µM [28] was 31%. The inhibition of growth at 10 µM [29] was 17.3%.
